Experimental findings from the supplement of paper PMC11208160 are described below.
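Note: IS621 bridge recombinase in Escherichia coli cells against a fixed T5 target plasmid.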

The data set in a line: recombinant UMI read abundance after kanamycin selection (control-corrected) (log10(CPM+1)); higher = more efficient recombination; extreme values may be limits of the assay; sequences stand for … in AGTGCAGAGAAAATCGGCCAGTTTTCTCTGCCTGCAGTCCGCATGCCGTGGGACCCCTTGGGTTCTAACCTGTTGCCTAGATTTATGCAGCGGACTGCCTTTCTCCCAAAGTGATAAACCGG…AGGTTGGTTTCACT; site = the 11-nt donor. In short, it runs like this: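 In Escherichia coli, a pool of donor and donor-binding-loop pairs, each with a 12-nt UMI, was tested for the IS621 bridge recombinase. Plating was on IPTG (0.07 mM) plus kanamycin, or without selection, in two replicates. Recombinant UMIs were amplified by PCR across the donor–target junction and sequenced, and counts were reported as log10(CPM+1) after averaging and control-derived scaling.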
As for “GACGTCTCATGGACCGGTTTTCCCGGTAATCCGTATTTGGA (site GACGTCTCTTC)”, the “recombinant UMI read abundance (log10)” value was determined as 1.94. Turning to “GACTATACATGGACCGGTTTTCCCGGTAATCCGTATTTGGG (site GACTATACTCC)”, the “recombinant UMI read abundance (log10)” value stood at 0.588. Next, “GACTCGACATGGACCGGTTTTCCCGGTAATCCGTATTTGCA (site GACTCGACTTG)”: 1.84; “GACTCTGCATGGACCGGTTTTCCCGGTAATCCGTATTTGCT (site GACTCTGCTAG)”: 1.3; “GACTGACCATGGACCGGTTTTCCCGGTAATCCGTATTTGGC (site GACTGACCTGC)”: 0. Regarding “GACTGAGCATGGACCGGTTTTCCCGGTAATCCGTATTTGTC (site GACTGAGCTGA)”, the “recombinant UMI read abundance (log10)” value turned out to be 2.29.

Regarding “GACTGCACATGGACCGGTTTTCCCGGTAATCCGTATTTGGT (site GACTGCACTAC)”, the “recombinant UMI read abundance (log10)” value was 0.857.

Consider “GACTTAGCATGGACCGGTTTTCCCGGTAATCCGTATTTGGT (site GACTTAGCTAC)”, for which the “recombinant UMI read abundance (log10)” value came to 0.191.

“GAGAAACCATGGACCGGTTTTCCCGGTAATCCGTATTTGGT (site GAAAAACCTAC)”: the “recombinant UMI read abundance (log10)” value worked out at 0. For “GAGAAACCATGGACCGGTTTTCCCGGTAATCCGTATTTGGT (site GACAAACCTAC)”, the “recombinant UMI read abundance (log10)” value amounted to 0. For the sequence “GAGAAACCATGGACCGGTTTTCCCGGTAATCCGTATTTGGT (site GAGAAACCTAC)”, the “recombinant UMI read abundance (log10)” value came to 0. On to “GAGAAACCATGGACCGGTTTTCCCGGTAATCCGTATTTGGT (site GATAAACCTAC)”, for which the “recombinant UMI read abundance (log10)” value was 0.

For “GAGAACCCATGGACCGGTTTTCCCGGTAATCCGTATTTGTC (site GAGAACCCTGA)”, the “recombinant UMI read abundance (log10)” value is 0. Next, “GAGAAGCCATGGACCGGTTTTCCCGGTAATCCGTATTTGAC (site GAGAAGCCTGT)”: 0; “GAGACAACATGGACCGGTTTTCCCGGTAATCCGTATTTGAA (site GAGACAACTTT)”: 0.852; “GAGACGACATGGACCGGTTTTCCCGGTAATCCGTATTTGGG (site GAGACGACTCC)”: 0.501. Turning to “GAGACGACATGGACCGGTTTTCCCGGTAATCCGTATTTGTC (site GAGACGACTGA)”, the “recombinant UMI read abundance (log10)” value was 1.94. Next, “GAGACTACATGGACCGGTTTTCCCGGTAATCCGTATTTGAA (site GAGACTACTTT)”: 0.551; “GAGATAACATGGACCGGTTTTCCCGGTAATCCGTATTTGCG (site GAGATAACTCG)”: 1.56; “GAGATCACATGGACCGGTTTTCCCGGTAATCCGTATTTGGT (site GAGATCACTAC)”: 1.37.

Turning to “GAGATGACATGGACCGGTTTTCCCGGTAATCCGTATTTGCA (site GAGATGACTTG)”, the “recombinant UMI read abundance (log10)” value was determined as 2.52. On to “GAGCAATCATGGACCGGTTTTCCCGGTAATCCGTATTTGTT (site GAGCAATCTAA)”, for which the “recombinant UMI read abundance (log10)” value was 2.77.

On to “GAGCATGCATGGACCGGTTTTCCCGGTAATCCGTATTTGGT (site GAGCATGCTAC)”, for which the “recombinant UMI read abundance (log10)” value was 1.5. Next, “GAGCATGCATGGACCGGTTTTCCCGGTAATCCGTATTTGGT (site GCGCATGCTAC)”: 0.474; “GAGCATGCATGGACCGGTTTTCCCGGTAATCCGTATTTGGT (site GGGCATGCTAC)”: 0.422; “GAGCATGCATGGACCGGTTTTCCCGGTAATCCGTATTTGGT (site GTGCATGCTAC)”: 0.162.

With “GAGCCGGCATGGACCGGTTTTCCCGGTAATCCGTATTTGGT (site GAGCCGGCTAC)”, the “recombinant UMI read abundance (log10)” value was found to be 0.57. Next, “GAGCCTGCATGGACCGGTTTTCCCGGTAATCCGTATTTGGT (site GAGCCTGCTAC)”: 0.482; “GAGCGTTCATGGACCGGTTTTCCCGGTAATCCGTATTTGCG (site GAGCGTTCTCG)”: 1.82. Next, “GAGCTAACATGGACCGGTTTTCCCGGTAATCCGTATTTGAT (site GAGCTAACTAT)”: 2.46; “GAGCTAACATGGACCGGTTTTCCCGGTAATCCGTATTTGAT (site GAGCTCACTAT)”: 0.0205. Next, “GAGCTAACATGGACCGGTTTTCCCGGTAATCCGTATTTGAT (site GAGCTGACTAT)”: 0.034; “GAGCTAACATGGACCGGTTTTCCCGGTAATCCGTATTTGAT (site GAGCTTACTAT)”: 0.00927; “GAGCTCACATGGACCGGTTTTCCCGGTAATCCGTATTTGCT (site GAGCTCACTAA)”: 1.28. For “GAGCTCACATGGACCGGTTTTCCCGGTAATCCGTATTTGCT (site GAGCTCACTAC)”, the “recombinant UMI read abundance (log10)” value amounted to 0.00315. Next, “GAGCTCACATGGACCGGTTTTCCCGGTAATCCGTATTTGCT (site GAGCTCACTAG)”: 2.24. Next, “GAGCTCACATGGACCGGTTTTCCCGGTAATCCGTATTTGCT (site GAGCTCACTAT)”: 1.14; “GAGCTGACATGGACCGGTTTTCCCGGTAATCCGTATTTGAT (site GAGCTAACTAT)”: 2.08. Next, “GAGCTGACATGGACCGGTTTTCCCGGTAATCCGTATTTGAT (site GAGCTCACTAT)”: 0.0113.

Consider “GAGCTGACATGGACCGGTTTTCCCGGTAATCCGTATTTGAT (site GAGCTGACTAT)”, for which the “recombinant UMI read abundance (log10)” value came to 2.09. Next, “GAGCTGACATGGACCGGTTTTCCCGGTAATCCGTATTTGAT (site GAGCTTACTAT)”: 0.154; “GAGCTGCCATGGACCGGTTTTCCCGGTAATCCGTATTTGCG (site GAGCTGCCTCG)”: 0.232; “GAGGAACCATGGACCGGTTTTCCCGGTAATCCGTATTTGTT (site GAGGAACCTAA)”: 0. Next, “GAGGATTCATGGACCGGTTTTCCCGGTAATCCGTATTTGTT (site GAAGATTCTAA)”: 1.46. Next, “GAGGATTCATGGACCGGTTTTCCCGGTAATCCGTATTTGTT (site GACGATTCTAA)”: 0.365; “GAGGATTCATGGACCGGTTTTCCCGGTAATCCGTATTTGTT (site GAGGATTCTAA)”: 2.83; “GAGGATTCATGGACCGGTTTTCCCGGTAATCCGTATTTGTT (site GATGATTCTAA)”: 0.0156. For “GAGGGGCCATGGACCGGTTTTCCCGGTAATCCGTATTTGGC (site GAGGGGCCTGC)”, the “recombinant UMI read abundance (log10)” value turned out to be 0. With “GAGTACCCATGGACCGGTTTTCCCGGTAATCCGTATTTGTT (site GAGTACCCTAA)”, the “recombinant UMI read abundance (log10)” value worked out at 0.0215. Next, “GAGTGCGCATGGACCGGTTTTCCCGGTAATCCGTATTTGTC (site GAGTGCGCTGA)”: 2.71; “GAGTGGCCATGGACCGGTTTTCCCGGTAATCCGTATTTGCA (site GAATGGCCTTG)”: 0; “GAGTGGCCATGGACCGGTTTTCCCGGTAATCCGTATTTGCA (site GACTGGCCTTG)”: 0.
